Here are results for four compounds from ChEMBL document CHEMBL3044921, “Synthesis, characterization, and SAR studies of new (1H-indol-3-yl)alkyl-3-(1H-indol-3-yl)propanamide derivatives as possible antimicrobial and antitubercular agents” (2013).

Experiment [1] has as its system Candida albicans. As to the kind of experiment: Antifungal activity against Candida albicans assessed as growth inhibition at […] to […] ug/ml after 3 to 4 days by agar well diffusion method. The format is functional. (A growth-free zone around the sample is the usual read-out of agar diffusion tests.)
Experiment [2] relates to Mycobacterium tuberculosis. Kind of experiment: Antitubercular activity against Mycobacterium tuberculosis H37Rv ATCC 27294 assessed as growth inhibition at 1 to 100 ug/mL after 7 days by resazurin reduction test. The format is functional. The note with it: for MIC: Mycobacterium tuberculosis, H37Rv ATCC 27294, 168 h. (Alamar Blue is a resazurin reagent that responds to reducing activity.)

In experiment [3] the test system is Trichophyton mentagrophytes. Kind of experiment: Antifungal activity against Trichophyton mentagrophytes assessed as growth inhibition after 3 to 4 days by serial plate dilution method. The format is functional.
The test system of experiment [4] is Aspergillus fumigatus. Kind of experiment: Antifungal activity against Aspergillus fumigatus NCIM 902 assessed as growth inhibition at […] to […] ug/ml after 3 to 4 days by agar well diffusion method. Format: functional.
Experiment [5] deals with Pseudomonas aeruginosa. Kind of experiment: Antibacterial activity against Pseudomonas aeruginosa ATCC 27853 assessed as growth inhibition after 16 to 18 hr by serial plate dilution method. Format: functional.
Experiment [6] concerns Candida albicans. Kind of experiment: Antifungal activity against Candida albicans assessed as growth inhibition after 3 to 4 days by serial plate dilution method. The format is functional.
For experiment [7], the system named is Aspergillus flavus. As to the kind of experiment: Antifungal activity against Aspergillus flavus NCIM 524 assessed as growth inhibition at […] to […] ug/ml after 3 to 4 days by agar well diffusion method. The format is functional.
The subject of experiment [8] is Pseudomonas aeruginosa. Format: functional, ATCC 27853.
Description: Antibacterial activity against Pseudomonas aeruginosa ATCC 27853 assessed as growth inhibition at 1.56 to 25 ug/ml after 3 to 4 days by agar well diffusion method
Experiment [9] has as its system Staphylococcus aureus. Format: functional, ATCC 25923.
Description: Antibacterial activity against Staphylococcus aureus ATCC 25923 assessed as growth inhibition at 1.56 to 25 ug/ml after 3 to 4 days by agar well diffusion method
Experiment [10] has as its system Streptococcus pyogenes. Kind of experiment: Antibacterial activity against Streptococcus pyogenes assessed as growth inhibition after 16 to 18 hr by serial plate dilution method. Format: functional.
The test system of experiment [11] is Streptococcus pyogenes. The format is functional.
Description: Antibacterial activity against Streptococcus pyogenes assessed as growth inhibition at 1.56 to 25 ug/ml after 3 to 4 days by agar well diffusion method
Experiment [12] concerns Mycolicibacterium fortuitum. Kind of experiment: Antitubercular activity against Mycobacterium fortuitum ATCC 19542 assessed as growth inhibition at 1 to 100 ug/mL after 7 days by resazurin reduction test. As to conditions: ATCC 19542, 168 h. Format: functional.
Experiment [13] has as its system Staphylococcus aureus. Kind of experiment: Antibacterial activity against Staphylococcus aureus ATCC 25923 assessed as growth inhibition after 16 to 18 hr by serial plate dilution method. Format: functional.
For experiment [14], the system named is Aspergillus fumigatus. As to the kind of experiment: Antifungal activity against Aspergillus fumigatus NCIM 902 assessed as growth inhibition after 3 to 4 days by serial plate dilution method. The format is functional.
Experiment [15] deals with Klebsiella pneumoniae. As to the kind of experiment: Antibacterial activity against Klebsiella pneumoniae assessed as growth inhibition after 16 to 18 hr by serial plate dilution method. The format is functional.
Experiment [16] concerns Talaromyces marneffei. Kind of experiment: Antifungal activity against Talaromyces marneffei assessed as growth inhibition at […] to […] ug/ml after 3 to 4 days by agar well diffusion method. Format: functional.
Experiment [17] relates to Talaromyces marneffei. As to the kind of experiment: Antifungal activity against Talaromyces marneffei assessed as growth inhibition after 3 to 4 days by serial plate dilution method. Format: functional.
Experiment [18] concerns Aspergillus flavus. As to the kind of experiment: Antifungal activity against Aspergillus flavus NCIM 524 assessed as growth inhibition after 3 to 4 days by serial plate dilution method. Format: functional.
For experiment [19], the system named is Trichophyton mentagrophytes. As to the kind of experiment: Antifungal activity against Trichophyton mentagrophytes assessed as growth inhibition at […] to […] ug/ml after 3 to 4 days by agar well diffusion method. Format: functional.
In experiment [20] the test system is Escherichia coli. The format is functional, ATCC 24922.
Description: Antibacterial activity against Escherichia coli ATCC 24922 assessed as growth inhibition at 1.56 to 25 ug/ml after 3 to 4 days by agar well diffusion method
In experiment [21] the test system is Klebsiella pneumoniae. The format is functional.
Description: Antibacterial activity against Klebsiella pneumoniae assessed as growth inhibition at 1.56 to 25 ug/ml after 3 to 4 days by agar well diffusion method
Experiment [22] has as its system Escherichia coli. As to the kind of experiment: Antibacterial activity against Escherichia coli […] assessed as growth inhibition after 16 to 18 hr by serial plate dilution method. The format is functional.
The subject of experiment [23] is Mycolicibacterium smegmatis. As to the kind of experiment: Antitubercular activity against Mycobacterium smegmatis ATCC 19420 assessed as growth inhibition at 1 to 100 ug/mL after 7 days by resazurin reduction test. The format is functional. The note with it: ATCC 19420, 168 h.

Values after ≈ are worked out from the molar mass of the structure shown.

With `Cn1cc(CCCNC(=O)CCc2c[nH]c3ccc(Cl)cc23)c2cc(Cl)ccc21`, the “diameter of the inhibition zone (DIZ)” value is on record as under 10 mm in experiment [1]; 16 mm in [4]; under 10 mm in experiment [7]; 11 mm in [8]; under 10 mm in [9]; under 10 mm in experiment [11]. Besides, the “diameter of the inhibition zone (DIZ)” value in experiment [16] is on record as under 10 mm; in experiment [19], 16 mm; in experiment [20], 11 mm; in experiment [21], 11 mm. Moreover, the “growth inhibition (GI)” value in experiment [2] is given as 0%. Also, the MIC is over 100 µg/mL in experiment [2]; 6.25 µg/mL (≈ 14.6 µM) in [3]; 12.5 µg/mL (≈ 29.2 µM) in experiment [5]; 25 µg/mL (≈ 58.4 µM) in experiment [6]; 25 µg/mL (≈ 58.4 µM) in experiment [10]; over 100 µg/mL in experiment [12]. The minimum inhibitory concentration (MIC) worked out at 25 µg/mL (≈ 58.4 µM) in experiment [13]; 6.25 µg/mL (≈ 14.6 µM) in experiment [14]; 12.5 µg/mL (≈ 29.2 µM) in [15]; 25 µg/mL (≈ 58.4 µM) in experiment [17]; 25 µg/mL (≈ 58.4 µM) in experiment [18]; 12.5 µg/mL (≈ 29.2 µM) in [22]. Also, the minimal inhibitory concentration (MIC) in experiment [23] is over 100 µg/mL.
Turning to `O=C(CCc1c[nH]c2ccc(Cl)cc12)NCCCc1c[nH]c2ccc(OC(F)(F)F)cc12`, the “diameter of the inhibition zone (DIZ)” value is under 10 mm in experiment [1]; under 10 mm in [4]; under 10 mm in experiment [7]; 16 mm in experiment [8]; 16 mm in experiment [9]; 11 mm in experiment [11]. Further, the “diameter of the inhibition zone (DIZ)” value was under 10 mm in experiment [16], under 10 mm in experiment [19], 16 mm in [20] and 16 mm in [21]. The “growth inhibition (GI)” value in experiment [2] stood at 0%. Moreover, the minimal inhibitory concentration (MIC) was over 100 µg/mL in [2]; 25 µg/mL (≈ 53.9 µM) in [3]; 6.25 µg/mL (≈ 13.5 µM) in experiment [5]; 25 µg/mL (≈ 53.9 µM) in experiment [6]; 12.5 µg/mL (≈ 26.9 µM) in experiment [10]; over 100 µg/mL in [12]. Further, the MIC was found to be 6.25 µg/mL (≈ 13.5 µM) in [13]; 25 µg/mL (≈ 53.9 µM) in [14]; 6.25 µg/mL (≈ 13.5 µM) in experiment [15]; 25 µg/mL (≈ 53.9 µM) in [17]; 25 µg/mL (≈ 53.9 µM) in experiment [18]; 6.25 µg/mL (≈ 13.5 µM) in [22]. Besides, the MIC in experiment [23] is over 100 µg/mL.
With `Cc1cc(C2CCCCC2)n(O)c(=O)c1.NCCO` [CICLOPIROX OLAMINE], the “diameter of the inhibition zone (DIZ)” value was found to be 20 mm in experiment [1]; 25 mm in experiment [4]; 25 mm in [7]; 20 mm in experiment [16]; 27 mm in [19]. Further, the MIC in experiment [3], in [6], in experiment [14], in experiment [17] and in experiment [18] was 6.25 µg/mL each time.
Turning to `O=C(O)c1cn(C2CC2)c2cc(N3CCNCC3)c(F)cc2c1=O` [CIPROFLOXACIN], the “diameter of the inhibition zone (DIZ)” value in [8] came out at 16 mm; in experiment [9], 30 mm; in experiment [11], 23 mm; in experiment [21], 21 mm. The MIC worked out at 6.25 µg/mL (≈ 18.9 µM) in experiment [10] and 1.56 µg/mL (≈ 4.71 µM) in experiment [15].

As usually defined, the MIC is the lowest concentration found to suppress growth.
